# According to ChEMBL document CHEMBL1130350, “Heteroaryl analogues of AMPA. Synthesis and quantitative structure-activity relationships” (J Med Chem, 1997):
# Assays:
# [1] = target: Glutamate receptor ionotropic kainate
# Description: In vitro binding affinity against Ionotropic glutamate receptor kainate (kainic acid) using [3H]KAIN as radioligand
# [2] = target: Glutamate receptor ionotropic AMPA (Rattus norvegicus)
# [3] = pKa value determined by potentiometric titrations. 4.4 is the equivalence volume; initial titrant volume is 9.8; type: physicochemical
# [4] = target: Glutamate [NMDA] receptor; experiment: In vitro binding affinity against N-methyl-D-aspartate glutamate receptor using [3H]-[…] as radioligand; type: protein-complex assay
# Rattus norvegicus = organism: Rattus norvegicus; experiment: Electrophysiological study in rat cortical slice model; type: functional
# [5] = pKa value determined by potentiometric titrations. 5.1 is the equivalence volume; initial titrant volume is 9.4; type: physicochemical
# [6] = pKa value determined by potentiometric titrations. 4.6 is the equivalence volume; initial titrant volume is 10.2; type: physicochemical
# [7] = pKa value determined by potentiometric titrations. 4.5 is the equivalence volume; initial titrant volume is 9.5; type: physicochemical
# [8] = pKa value determined by potentiometric titrations. 4.6 is the equivalence volume; initial titrant volume is 9.5; type: physicochemical
# [9] = pKa value determined by potentiometric titrations. 5 is the equivalence volume; initial titrant volume is 9.6; type: physicochemical
# [10] = pKa value determined by potentiometric titrations. 5 is the equivalence volume; initial titrant volume is 9.7; type: physicochemical
# [11] = pKa value determined by potentiometric titrations. 4.9 is the equivalence volume; initial titrant volume is 9.7; type: physicochemical
# [12] = pKa value determined by potentiometric titrations. 5.3 is the equivalence volume; initial titrant volume is 9.8; type: physicochemical
SMILES,IC50 [1],IC50 [2],pKa [3],IC50 [4],EC50 (Rattus norvegicus),pKa [5],pKa [6],pKa [7],pKa [8],pKa [9],pKa [10],pKa [11],pKa [12]
NC(Cc1c(O)noc1-c1nccs1)C(=O)O (stereo unspecified),4.9 µM,0.094 µM,< 2,> 100 µM,2.3 µM,–,–,–,–,–,–,–,–
Cn1nnnc1-c1onc(O)c1CC(N)C(=O)O (stereo unspecified),> 100 µM,54 µM,–,> 100 µM,> 1000 µM,3.7,–,–,–,–,–,–,–
NC(Cc1c(O)noc1-c1nc[nH]n1)C(=O)O (stereo unspecified),58 µM,1.5 µM,–,> 100 µM,63 µM,–,< 2.4,–,–,–,–,–,–
Cn1ncnc1-c1onc(O)c1CC(N)C(=O)O (stereo unspecified),16 µM,5.8 µM,–,> 100 µM,93 µM,–,–,< 2.3,–,–,–,–,–
Cn1cnc(-c2onc(O)c2CC(N)C(=O)O)n1 (stereo unspecified),> 100 µM,0.7 µM,–,> 100 µM,11 µM,–,–,–,< 2.3,–,–,–,–
Cn1nnc(-c2onc(O)c2CC(N)C(=O)O)n1 (stereo unspecified),41 µM,–,–,> 100 µM,0.92 µM,–,–,–,–,2.9,–,–,–
NC(Cc1c(O)noc1-c1nn[nH]n1)C(=O)O (stereo unspecified),> 100 µM,72 µM,–,> 100 µM,> 1000 µM,–,–,–,–,–,< 3,–,–
NC(Cc1c(O)noc1-c1ncc[nH]1)C(=O)O (stereo unspecified),> 100 µM,48 µM,–,> 100 µM,550 µM,–,–,–,–,–,–,< 3.4,–
Cn1ccnc1-c1onc(O)c1CC(N)C(=O)O (stereo unspecified),74 µM,> 100 µM,–,> 100 µM,> 1000 µM,–,–,–,–,–,–,–,< 3.4
"Cc1onc(O)c1CC(N)C(=O)O [(R,S)-AMPA]",–,–,–,> 100 µM,5.4 µM,–,–,–,–,–,–,–,–
